Laboratory results from US8252737B2, “Antimicrobial peptides and methods of use” (priority 2004, dated 2012).
In brackets after ≈: the same amount, converted by molar mass. Where two headings read alike, the source gives them in different places. Square brackets hold non-standard residues; d marks the D form. Peptide text beside a SMILES is read from it.

Assays:
gram-positive bacteria = test system: gram-positive bacteria
Description: Measurement of Antimicrobial Activity—Minimal inhibitory concentrations (MICs) were determined using a standard microtiter dilution method in LB (Luria-Bertani) no-salt medium (10 g of tryptone and 5 g of yeast extract per liter). Briefly, cells were grown overnight at 37° C. in LB and diluted in the same medium. […] Plates were incubated at 37° C. for 24 hours and MICs determined as the lowest peptide concentration that inhibited growth. Alternatively, minimal inhibitory concentrations were determined using a standard microtiter dilution method in a Mueller-Hinton (MH) medium. Briefly, cells were grown overnight at 37° C. in MH broth and diluted in the same medium. […] Plates were incubated at 37° C. for 24 hours and MICs determined as the lowest peptide concentration that inhibited growth. However, for MIC determination of Pseudomonas aeruginosa clinical isolates, brain heart infusion (BH1) medium was used instead of MH broth. In addition, the bacteria were diluted to a final inoculum of 1×10^6 colony-forming units/ml.

human erythrocytes = test: Hemolytic activity (MHC), Protocol A, 12 hours
Description: Measurement of Hemolytic Activity—Protocol A: Peptide samples were added to 1% human erythrocytes in phosphate buffered saline (0.08M NaCl; 0.043M Na2PO4; 0.011M KH2PO4) and reactions were incubated at 37° C. for 12 hours in microtiter plates. Peptide samples were diluted 2 fold in order to determine the concentration that produced no hemolysis. […] Hemoglobin release was determined spectrophotometrically at 562 nm. The hemolytic titer was the highest 2-fold dilution of the peptide that still caused release of hemoglobin from erythrocytes. The control for no release of hemoglobin was a sample of 1% erythrocytes without any peptide added. […] Peptide samples were diluted 2 fold in order to determine the concentration that produced no hemolysis. […] Hemoglobin release was determined spectrophotometrically at 570 nm. The hemolytic titer was the highest 2-fold dilution of the peptide that still caused release of hemoglobin from erythrocytes. The control for no release of hemoglobin was a sample of 1% erythrocytes without any peptide added.

[1] = RP-HPLC temperature profiling (hydrophobicity and self-association/dimerization parameter PA); format: physicochemical; settings: for tR (min) 5° C.: RP-HPLC retention time at 5° C. during temperature profiling (measure of hydrophobicity); for tR (min) 80° C.: RP-HPLC retention time at 80° C. during temperature profiling; for tR (min) Max: maximal RP-HPLC retention time during temperature profiling 5-80° C.; for PA (min) association parameter: maximal retention time difference relative to control peptide C within 5-80° C.; for ΔtR (X-PSL) (min) 5° C. / ΔtR (X-PSL) (min) 80° C.: polar face substitutions, relative hydrophobicity; for ΔtR (X-PSL) (min) 5° C.: retention time difference relative to native peptide V681 (PSL) at 5° C.; for ΔtR (X-PSL) (min) 80° C.: retention time difference relative to native peptide V681 (PSL) at 80° C.
Procedure, shortened: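 RP-HPLC retention times recorded over temperature profiling from 5°C to 80°C, with retention relative to native V681 at each limit used as hydrophobicity. Self-association parameter PA defined as the maximal change in retention time from 5°C, after subtracting that of monomeric random-coil control peptide C.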

[2] = minimal hemolytic concentration on human red blood cells (hRBC), Table 9

Row | SMILES | MIC (μg/ml) Gram-positive (gram-positive bacteria) | fold decrease in hemolytic activity compared to the L-diastereomer (human erythrocytes) | minimal hemolytic concentration (MHC) (human erythrocytes; incubation for 12 hours at 37° C. (Tables 7 and 8)) | MHC (human erythrocytes; [2]) | tR (min) 5° C. [1] | tR (min) 80° C. [1] | tR (min) Max [1] | PA (min) association parameter [1] | ΔtR (X-PSL) (min) 5° C. [1] | ΔtR (X-PSL) (min) 80° C. [1] | MHC (human erythrocytes) | geometric mean MIC against gram-positive bacteria (gram-positive bacteria; Table 8) | MIC (μg/ml) Gram-positive (gram-positive bacteria; geometric mean MIC, Table 9) | fold improvement in antimicrobial activity compared to V681 (gram-positive bacteria; gram-positive bacteria, geometric mean MIC, Table 8)
1 | CC[C@H](C)[C@H](NC(=O)[C@H](C)NC(=O)[C@H](CCCCN)NC(=O)[C@H](CC(C)C)NC(=O)[C@H](C)NC(=O)[C@@H](NC(=O)[C@H](Cc1c[nH]cn1)NC(=O)[C@H](CC(C)C)NC(=O)[C@@H](NC(=O)[C@@H](NC(=O)[C@H](CCCCN)NC(=O)[C@@H](NC(=O)[C@H](C)NC(=O)[C@H](NC(=O)[C@H](CCCCN)NC(=O)[C@H](Cc1ccccc1)NC(=O)[C@@H](NC(=O)[C@H](CCCCN)NC(=O)[C@H](CC(C)C)NC(=O)[C@H](Cc1ccccc1)NC(=O)[C@H](CO)NC(=O)[C@H](CCCCN)NC(=O)[C@H](Cc1c[nH]c2ccccc12)NC(=O)[C@H](CCCCN)NC(C)=O)[C@@H](C)O)C(C)C)C(C)C)[C@@H](C)O)C(C)C)[C@@H](C)O)C(=O)N[C@@H](CO)C(=O)N[C@@H](CO)C(N)=O [PVD] (Ac-KWKSFLKTFK[dV]AVKTVLHTALKAISS-NH2) | 6.6 µg/mL (≈ 2.22 µM) | 16 | 125 µg/mL | 125.0 µg/mL | 42.96 min | 40.51 min | 43.83 min | 2.54 min | -5.14 min | -5.32 min |  |  |  | 
2 | CC[C@H](C)[C@H](NC(=O)[C@H](C)NC(=O)[C@H](CCCCN)NC(=O)[C@H](CC(C)C)NC(=O)[C@H](C)NC(=O)[C@@H](NC(=O)[C@H](Cc1c[nH]cn1)NC(=O)[C@H](CC(C)C)NC(=O)[C@@H](NC(=O)[C@@H](NC(=O)[C@H](CCCCN)NC(=O)[C@@H](NC(=O)[C@H](C)NC(=O)[C@@H](C)NC(=O)[C@H](CCCCN)NC(=O)[C@H](Cc1ccccc1)NC(=O)[C@@H](NC(=O)[C@H](CCCCN)NC(=O)[C@H](CC(C)C)NC(=O)[C@H](Cc1ccccc1)NC(=O)[C@H](CO)NC(=O)[C@H](CCCCN)NC(=O)[C@H](Cc1c[nH]c2ccccc12)NC(=O)[C@H](CCCCN)NC(C)=O)[C@@H](C)O)C(C)C)[C@@H](C)O)C(C)C)[C@@H](C)O)C(=O)N[C@@H](CO)C(=O)N[C@@H](CO)C(N)=O [PAD] (Ac-KWKSFLKTFK[dA]AVKTVLHTALKAISS-NH2) | 3.8 µg/mL (≈ 1.29 µM) |  |  |  | 45.19 min | 42.57 min | 46.36 min | 2.82 min | -2.91 min | -3.26 min | 15.6 µg/mL |  |  | 
3 | CC[C@H](C)[C@H](NC(=O)[C@H](C)NC(=O)[C@H](CCCCN)NC(=O)[C@H](CC(C)C)NC(=O)[C@H](C)NC(=O)[C@@H](NC(=O)[C@H](Cc1c[nH]cn1)NC(=O)[C@H](CC(C)C)NC(=O)[C@@H](NC(=O)[C@@H](NC(=O)[C@H](CCCCN)NC(=O)[C@@H](NC(=O)[C@H](C)NC(=O)[C@@H](CC(C)C)NC(=O)[C@H](CCCCN)NC(=O)[C@H](Cc1ccccc1)NC(=O)[C@@H](NC(=O)[C@H](CCCCN)NC(=O)[C@H](CC(C)C)NC(=O)[C@H](Cc1ccccc1)NC(=O)[C@H](CO)NC(=O)[C@H](CCCCN)NC(=O)[C@H](Cc1c[nH]c2ccccc12)NC(=O)[C@H](CCCCN)NC(C)=O)[C@@H](C)O)C(C)C)[C@@H](C)O)C(C)C)[C@@H](C)O)C(=O)N[C@@H](CO)C(=O)N[C@@H](CO)C(N)=O [PLD] (Ac-KWKSFLKTFK[dL]AVKTVLHTALKAISS-NH2) | 4.7 µg/mL (≈ 1.57 µM) |  |  |  | 44.73 min | 42.14 min | 45.85 min | 2.82 min | -3.37 min | -3.69 min | 31.2 µg/mL |  |  | 
4 | CC[C@H](C)[C@H](NC(=O)[C@H](C)NC(=O)[C@H](CCCCN)NC(=O)[C@H](CC(C)C)NC(=O)[C@H](C)NC(=O)[C@@H](NC(=O)[C@H](Cc1c[nH]cn1)NC(=O)[C@H](CC(C)C)NC(=O)[C@@H](NC(=O)[C@@H](NC(=O)[C@H](CCCCN)NC(=O)[C@@H](NC(=O)[C@H](C)NC(=O)[C@@H](CO)NC(=O)[C@H](CCCCN)NC(=O)[C@H](Cc1ccccc1)NC(=O)[C@@H](NC(=O)[C@H](CCCCN)NC(=O)[C@H](CC(C)C)NC(=O)[C@H](Cc1ccccc1)NC(=O)[C@H](CO)NC(=O)[C@H](CCCCN)NC(=O)[C@H](Cc1c[nH]c2ccccc12)NC(=O)[C@H](CCCCN)NC(C)=O)[C@@H](C)O)C(C)C)[C@@H](C)O)C(C)C)[C@@H](C)O)C(=O)N[C@@H](CO)C(=O)N[C@@H](CO)C(N)=O [PSD] |  |  |  | 15.6 µg/mL | 45.47 min | 42.59 min | 46.60 min | 2.73 min | -2.63 min | -3.24 min |  | 2.3 µg/mL | 2.3 µg/mL (≈ 0.777 µM) | 2.7
